# Laboratory results published in patent US20140179780A1, “PHARMACEUTICAL COMPOSITION CONTAINING OLEANOLIC ACID ACETATE AS AN ACTIVE INGREDIENT FOR PREVENTING OR TREATING TLR- OR IL-6-MEDIATED DISEASES” (Korea Research Institute of Bioscience and Biotechnology, priority 2011, published 2014).
# “And” between values parts separate entries of the source, which are not always exact repeats. Equal entries are not always repeated. Where two headings read alike, the source gives them in different places.
# Tests used:
# [1] = test system: poly(I)-induced NFkB/AP-1 dependent SEAP activity (TLR7 signaling pathway); assay: Poly(I)-induced NFkB/AP-1-dependent SEAP activity in THP1-Blue-CD14 cells; assay type: cell-based, Human; details: for Effect on poly(I)-induced SEAP activity (in words): THP-1-blue cells
# Procedure: (§1) THP1-Blue-CD14 cells were seeded at a density of 2×10^5 cells/100 μl in a 96-well plate, and cultured at 37° C. for 3 hours.
# [2] = test system: poly(I:C)-induced NFkB/AP-1 dependent SEAP activity (TLR3 signaling pathway); assay: Poly(I:C)-induced NFkB/AP-1-dependent SEAP activity in THP1-Blue-CD14 cells; assay type: cell-based, Human; details: for Effect on poly(I:C)-induced SEAP activity (in words): THP-1-blue cells
# Procedure: as §1
# [3] = test system: IL-6-induced STAT3 transcriptional activation; assay: IL-6 reactive STAT3 reporter gene (luciferase) assay in Hep3B cells; assay type: cell-based; details: for IC50 / Inhibition (%) of STAT3 luciferase activity: IL-6 10 ng/ml; for IC50: read-out: IC50, inhibition of IL-6-induced STAT3 luciferase activity; for Effect on STAT3 luciferase activity (in words): IL-6
# Procedure: pStat3-Luc and pcDNA3.1(+) (Clontech laboratories, Palo Alto, Calif.) were transfected into Hep3B cells (ATCC HB-8064) using lipofectamine plus (Invitrogen, Carlsbad, Calif., USA) at the same time. 2 days later, the cells were treated with hygromycin (100 μg/ml) to obtain clones stably expressing luciferase. Luciferase analysis was performed to examine whether luciferase is stably expressed in the clones.
# The transfected cells in the clones obtained in Example 5-1 were cultured in DMEM (GIBCO 119950965) under serum starvation, and the samples were treated for 1 hour as follows. 10 ng/ml IL-6 (R&D system, USA) was added thereto, followed by cultivation for 12 hours.
# The cultured cells were washed with PBS and 50 μl of lysis buffer (luciferase assay system, promega, USA) was added thereto, followed by stirring for 20 minutes. 30-100 μl of luciferase substrate (luciferase assay system, promega, USA) was added to measure […] using a luminometer (EG&G BERTHOLD, USA) within 5 minutes (Tables 5 and 6).
# In detail, the inhibitory effects of oleanolic acid or oleanolic acid acetate on STAT3 luciferase activity was measured in the same manner as in Example 5-2, except that oleanolic acid or oleanolic acid acetate was treated as a sample in an amount of 0.1, 1, 3, 6 or 10 μM, respectively and compared with each other (FIG. 14).
# STAT3 phosphorylation = assay: IL-6-induced STAT3 phosphorylation in Hep3B cells (Western blot); assay type: cell-based; details: IL-6 20 ng/ml 20 minutes, FIGS. 8a, 8b
# Procedure: Hep3B cells were seeded in a 6-well plate at a density of 5×10^5 per well, and cultured to a confluency of 80% in a culture plate. Then, the medium was replaced with serum-free medium and further cultured for 12 hours, and the samples were treated for 60 minutes as follows.
# Next, 20 ng/ml of IL-6 was treated, and reacted for 20 minutes, and 40 μl of lysis buffer (pH 8, 20 mM Tris-HCl, 137 mM NaCl, 10% glycerol, 1% Triton X-100, 1 mM Na3VO4, 2 mM EDTA, 1 mM APMSF, 20 μM leupeptin, 20 μg/ml aprotonin; Sigma, USA) was used for cell lysis. Centrifugation (13000 g, 15 minutes) was performed to obtain supernatants containing proteins. Protein concentrations were quantified using a DC protein assay kit (Bio-Rad, USA), and proteins were loaded in a 4˜12% SDS polyacrylamide gel (SDS-PAGE) and electrophoresis was performed at 175 mA for 2 hours. After electrophoresis, the proteins of the gel were transferred onto a PVDF membrane (Westran S, pore size […]; Whatman, USA) at 35 V for 90 minutes. The transferred membrane was blocked with Tris-buffer (T-TBS; 50 mM Tri-HCl, pH 7.6, 150 mM NaCl, 0.2% Tween-20, 5% skim milk; Sigma, USA) at room temperature for 1 hour, and washed with T-TBS five times. The membrane was treated with polyclonal antibody of phospho-STAT3 (1:1000 dilution) as a primary antibody at 4° C. 12 hours. […]
# [4] = test system: osteoclast differentiation from bone marrow macrophages; assay: RNAKL-induced osteoclast differentiation of bone marrow macrophages (TRAP staining); assay type: cell-based, mouse; details: for Osteoclast differentiation (number and size of TRAP-positive osteoclasts): M-CSF 30 ng/ml, RNAKL 50 ng/ml, 4 days
# Procedure: Femurs and tibia were removed from 5-week-old mice, and the bone cavity was washed using a 1 cc syringe to obtain bone marrow cells. The isolated bone marrow cells were cultured in α-MEM (α-minimum essential medium) containing 10% FBS, antibiotic, M-CSF (30 ng/ml) for 3 days. 3 days later, the adherent cells were used as bone marrow macrophage (BMM). The bone marrow macrophages were cultured by addition of M-CSF (30 ng/ml) and an osteoclast differentiation factor RNAKL (Receptor activator of nuclear factor kappa-B ligand) (50 ng/ml) and treated with the adzuki bean extract and oleanolic acid acetate at each concentration. 4 days later, the cultured cells were stained with a TRAP solution (Sigma Aldrich, USA), and red stained cells were determined as differentiated osteoclasts.
# [5] = Homo sapiens, sample 30 μM, poly(I) 50 μg/ml, read-out: Inhibition (%) of poly(I)-induced SEAP activity
# [6] = Homo sapiens, sample 60 μM, poly(I) 50 μg/ml, read-out: Inhibition (%) of poly(I)-induced SEAP activity
# [7] = Homo sapiens, sample 30 μM, poly(I:C) 100 μg/ml, read-out: Inhibition (%) of poly(I:C)-induced SEAP activity
# [8] = Homo sapiens, sample 60 μM, poly(I:C) 100 μg/ml, read-out: Inhibition (%) of poly(I:C)-induced SEAP activity
# [9] = Homo sapiens, read-out: Inhibition (%) of poly(I)-induced SEAP activity
# [10] = Homo sapiens, read-out: Inhibition (%) of poly(I:C)-induced SEAP activity
smiles,measurement,setting,value
"O=c1cc(-c2ccc(O)c(O)c2)oc2cc(O)cc(O)c12 [Luteolin, reference compound]",inhibition at 30 µM,[1]; [5],79.2%
same,inhibition at 60 µM,[1]; [6],96.3%
same,inhibition at 30 µM,[2]; [7],47.7%
same,inhibition at 60 µM,[2]; [8],67.3%
"CC[C@H](/C=C/[C@@H](C)[C@H]1CC[C@H]2[C@@H]3CC=C4C[C@@H](O)CC[C@]4(C)[C@H]3CC[C@]12C)C(C)C [Stigmasterol, (3S,8S,9S,10R,13R,14S,17R)-17-[(E,2R,5S)-5-ethyl-6-methylhept-3-en-2-yl]-10,13-dimethyl-2,3,4,7,8,9,11,12,14,15,16,17-dodecahydro-1H-cyclopenta[a]phenanthren-3-ol]",inhibition at 30 µM,[1]; [9],< 0%
same,inhibition at 60 µM,[1]; [9],2.63%
same,inhibition at 100 µM,[1]; [9],1.42%
same,Effect on poly(I)-induced SEAP activity (in words),[1],did not show the inhibitory activity
same,IC50,[3]; Homo sapiens,90 µM
same,Effect on STAT3 luciferase activity (in words),[3],inhibited STAT3 luciferase activity in a concentration dependent manner
same,Inhibition (%) of STAT3 luciferase activity,[3]; sample 60 μM,29.4%
same,Inhibition (%) of STAT3 luciferase activity,[3]; sample 100 μM,58.4%
same,inhibition at 30 µM,[2]; [10],8.71%
same,inhibition at 60 µM,[2]; [10],4.92%
same,inhibition at 100 µM,[2]; [10],< 0%
same,Effect on poly(I:C)-induced SEAP activity (in words),[2],did not show the inhibitory activity
CC1(C)CC[C@]2(C(=O)O)CC[C@]3(C)C(=CC[C@@H]4[C@@]5(C)CC[C@H](O)C(C)(C)[C@@H]5CC[C@]43C)[C@@H]2C1 [oleanolic acid],Inhibition (%) of STAT3 luciferase activity,[3]; sample 10 μM,approximately 14%
"C[C@@H]1O[C@@H](OC[C@H]2O[C@@H](Oc3c(-c4ccc(O)c(O)c4)oc4cc(O)cc(O)c4c3=O)[C@H](O)[C@@H](O)[C@@H]2O)[C@H](O)[C@H](O)[C@H]1O [Rutin, rutin, reference compound]",inhibition at 30 µM,[1]; [5],< 0%
same,inhibition at 60 µM,[1]; [6],< 0%
same,inhibition at 30 µM,[2]; [7],< 0%
same,inhibition at 60 µM,[2]; [8],< 0%
"CC(=O)O[C@H]1CC[C@@]2(C)C(CC[C@]3(C)[C@@H]2CC=C2[C@H]4CC(C)(C)CC[C@]4(C(=O)O)CC[C@]23C)C1(C)C (stereo partly drawn) [Oleanolic acid acetate, 4aS,6aR,6aS,6bR,8aR,10S,12aR,14bS)-10-hydroxy-2,2,6a,6b,9,9,12a-heptamethyl-1,3,4,5,6,6a,7,8,8a,10,11,12,13,14b-tetradecahydropicene-4a-carboxylic acid acetate]",IL-6-induced STAT3 phosphorylation,STAT3 phosphorylation,showed the inhibitory effects
same,inhibition at 10 µM,[1]; [9],2.02%
same,inhibition at 30 µM,[1]; [9],43.9%
same,inhibition at 60 µM,[1]; [9],74.6%
same,inhibition at 100 µM,[1]; [9],83%
same,Effect on poly(I)-induced SEAP activity (in words),[1],significantly inhibited
same,IC50,[3]; Homo sapiens,< 1 µM
same,Effect on STAT3 luciferase activity (in words),[3],inhibited STAT3 luciferase activity in a concentration dependent manner
same,IC50,[3],0.9 µM
same,Inhibition (%) of STAT3 luciferase activity,[3]; sample 1 μM,51.2%
same,Inhibition (%) of STAT3 luciferase activity,[3]; sample 3 μM,84.3%
same,Inhibition (%) of STAT3 luciferase activity,[3]; sample 6 μM,95.1%
same,Inhibition (%) of STAT3 luciferase activity,[3]; sample 10 μM,97.2%
same,Inhibition (%) of STAT3 luciferase activity,[3]; sample 30 μM,100%
same,Osteoclast differentiation,[4]; 10 μM,remarkable effect
same,Osteoclast differentiation (number and size of TRAP-positive osteoclasts),[4],remarkably inhibited
same,Osteoclast differentiation (number and size of TRAP-positive osteoclasts),[4]; listed as compound of Chemical Formula 1,reduced in a concentration-dependent manner
same,inhibition at 10 µM,[2]; [10],< 0%
same,inhibition at 30 µM,[2]; [10],9.28%
same,inhibition at 60 µM,[2]; [10],47.2%
same,inhibition at 100 µM,[2]; [10],64.4%
same,Effect on poly(I:C)-induced SEAP activity (in words),[2],significantly inhibited
"O=c1c(-c2ccc(O)cc2)coc2cc(O)cc(O)c12 [Genistein, reference compound]",Inhibition (%) of STAT3 luciferase activity,[3]; sample 100 μM,95.2% and 95.1% and 95.4%
"OC[C@H]1O[C@@H](Oc2cc(O)c3c(c2)O[C@H](c2ccc(O)c(O)c2)[C@@H](O)C3)[C@H](O)[C@@H](O)[C@@H]1O [Catechin-7-glucopyranoside, catechin-7-glucopyranoside, reference compound]",Effect on poly(I)-induced SEAP activity (in words),[1],did not affect
same,Effect on STAT3 luciferase activity (in words),[3],did not show the inhibitory effect
same,Inhibition (%) of STAT3 luciferase activity,[3]; sample 30 μM,8.3%
same,Inhibition (%) of STAT3 luciferase activity,[3]; sample 60 μM,15.9%
same,Inhibition (%) of STAT3 luciferase activity,[3]; sample 100 μM,0.4%
same,Effect on poly(I:C)-induced SEAP activity (in words),[2],did not affect
same,Inhibition (%) of poly(I:C)-induced SEAP activity,"[2]; sample 30 μM, poly(I:C) 100 μg/ml",13.19%
same,Inhibition (%) of poly(I:C)-induced SEAP activity,"[2]; sample 60 μM, poly(I:C) 100 μg/ml",11.16%
